Data from patent US11505558B1, “Antiviral heterocyclic compounds” (Enanta Pharmaceuticals, Inc., priority 2019, dated 2022).
pEC50: −log10 of the molar value. Where two headings read alike, the source gives them in different places.

What was measured:
[1] = test system: genotype A, "Long" strain RSV; test: RSV-A assay (CPE, ATPlite readout in Hep-2 cells); format: cell-based; details: human respiratory syncytial virus
Outline: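 Hep-2 cells (8,000/well) received 2-fold serial compound dilutions in duplicate and RSV Long strain at MOI 0.1. After 5 days' incubation, cell health was read as ATP by ATPlite luminescence, with virus-only and uninfected controls defining max and minimum CPE; EC50 reported.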

[2] = test system: recombinant HMPV CAN97-83 (MPV-GFP1); test: HMPV antiviral assay (MPV-GFP1 eGFP fluorescence in Vero E6 cells); format: cell-based; details: human metapneumovirus, Vero C1008, 120 h, read-out: HMPV EC50
Experimental: HMPV antiviral activity was evaluated using a recombinant version of HMPV CAN97-83 engineered to contain the coding sequence for enhanced green fluorescence protein (eGFP) in the 3′ end of the virus genome (MPV-GFP1, ViraTree). Vero E6 cells ([…]) were seeded at a density of 12,000 cells/100 μL/well into 96-well cell plates one day prior to the assay. On the day of screening, the cell culture medium was aspirated from the wells and cells were washed twice with serum-free Eagle's Modified Essential Medium (EMEM, ATCC #) containing 1% penicillin-streptomycin (Invitrogen) (SF-EMEM). Cell washes were performed by dispensing 100 μL SF-EMEM per well and immediately aspirating the wash medium from the well. Following the second wash step, serum-free OptiMEM (Invitrogen, Cat No.) (SF-OptiMEM) containing 0.5 μg/mL TPCK-Trypsin (VENDOR) and 1% penicillin-streptomycin was added to the cells at 50 μL/well. Compounds were added into the 96-well plates using a JANUS automated liquid handling system (VENDOR). Compounds were initially diluted 1:50 into an intermediate 96-well plate containing SF-OptiMEM prior to transfer to the assay plate (25 μL/well). Each of the test compounds were tested in duplicate wells at final concentrations starting from 8 μM or 2 μM using ½ stepwise dilutions for a total of 8 points. Virus infection was performed by preparing a working stock of MPV-GFP1 at a multiplicity of infection (MOI) equal to 0.05/25 μL and aliquoting 25 μL of virus inoculum to the compound and positive control wells. SF-OptiMEM was added (25 μL/well) to the appropriate wells to serve as a virus-free negative control for the assay. The final DMSO concentration of all wells is 0.5%. Plates were incubated at 32° C., 5% CO2 for 5 days.
After 5 days incubation, eGFP fluorescence intensity was measured at […] using a Spectramax i3X plate reader (VENDOR). Percent viral inhibition was calculated using the following equation: y=[[…]−(XQ/XP)]×100 Where XQ is the fluorescence intensity measured in a well containing recombinant MPV-GFP1-infected, compound-treated cells and XP is the average fluorescence intensity measured in the wells containing untreated cells infected with recombinant virus. EC50 values were then calculated by non-linear regression using a four parameter curve logistic equation. The curve fit model employed was XLFit Dose Response One Site Model 200: y=(A+(B/(1+((x/C)^D)))) Where A is the minimum y value, B is the maximum y value, C is the log EC50 value, and D is the slope factor. […] EC50 ranges are as follows: A<0.5 μM; B>0.5 μM.

[3] = HEp-2, Hep-2 cells, genotype A "Long" strain RSV, MOI 0.1, read-out: Human RSV-A (“Long” strain) EC50

Compound | pEC50 [1, 3] | pEC50 [2] | pEC50 ([1]; HEp-2, read-out: Human RSV-A (“Long” strain) EC50)
COc1cc(C(=O)NC[C@](C)(O)c2cc3c(c(-c4ccc(F)cc4)n2)OC[C@]3(C)C(N)=O)cc2cccnc12 [Example 219] | > 6.70 | < 6.30 | 
COc1cc(C(=O)NC[C@](O)(c2cc3c(c(-c4ccc(F)cc4)n2)OC[C@]3(C)C(N)=O)C(F)(F)F)cc2ccncc12 [Example 361] | > 6.70 | < 6.30 | 
C[C@]1(C(N)=O)COc2c1cc([C@@](O)(CNC(=O)c1ccc(OC3CC3)c(OC3CC3)c1)C(F)(F)F)nc2-c1ccc(C#N)cc1 [Example 94] | > 6.70 | > 6.30 | 
C[C@]1(C(N)=O)COc2c1cc([C@@](O)(CNC(=O)c1ccc(OC3CC3)c(OC3CC3)c1)C(F)(F)F)nc2-c1ccc(F)c(F)c1 [Example 91] | > 6.70 | > 6.30 | 
C[C@@H](O)COc1ccc(C(=O)NC[C@](O)(c2cc3c(c(-c4ccc(F)cc4)n2)OC[C@]3(C)C(N)=O)C(F)(F)F)cc1OC1CC1 [Example 289] | > 6.70 | < 6.30 | 
COc1cc(C(=O)NC[C@](O)(c2cc3c(c(-c4ccc(F)cc4)n2)OCC3(F)C(N)=O)C(F)(F)F)cc2cn(C(F)F)nc12 (stereo partly drawn) [Example 670] | > 6.70 | > 6.30 | 
C[C@]1(C(N)=O)COc2c1cc([C@@](O)(CNC(=O)c1cc(OC3CC3)c3nc(N)sc3c1)C(F)(F)F)nc2-c1ccc(F)c(Cl)c1 [Example 544] | > 6.70 | > 6.30 | 
C[C@]1(C(N)=O)COc2c1cc([C@@](O)(CNC(=O)c1cc(OC(F)F)c3nc(N)sc3c1)C(F)(F)F)nc2-c1ccc(F)cc1 [Example 537] | > 6.70 | < 6.30 | 
Cn1cc2cc(C(=O)NC[C@](O)(c3cc4c(c(-c5ccc(F)cc5)n3)OC[C@]4(C)C(=O)NCC(C)(C)O)C3CC3)ccc2n1 [Example 642] | > 6.70 | < 6.30 | 
Cc1cnc2c(O)cc(C(=O)NC[C@](O)(c3cc4c(c(-c5ccc(F)cc5)n3)OC[C@]4(C)C(N)=O)C(F)(F)F)cc2c1 [Example 252] | > 6.70 | < 6.30 | 
Cc1ncoc1-c1ccc(C(=O)NC[C@](O)(c2cc3c(c(-c4ccc(F)cc4)n2)OC[C@]3(C)C(N)=O)C(F)(F)F)cc1OC1CC1 [Example 180] | > 6.70 | < 6.30 | 
C[C@]1(C(N)=O)COc2c1cc([C@@](O)(CNC(=O)c1cc(OC3CC3)c3ncccc3c1)C(F)(F)F)nc2-c1ccc(F)cc1 [Example 61] | > 6.70 | > 6.30 | 
COc1cc(C(=O)NC[C@](O)(c2cc3c(c(-c4ccc(F)cc4)n2)OCC3(F)C(N)=O)C(F)(F)F)cc2cc(Cl)c(C)nc12 (stereo partly drawn) [Example 668] | > 6.70 | > 6.30 | 
COc1cc(C(=O)NC[C@](O)(c2cc3c(c(-c4ccc(F)cc4)n2)OC[C@]3(C)C(N)=O)C(F)(F)F)cc2cc(Cl)cnc12 [Example 520] | > 6.70 | > 6.30 | 
C[C@]1(C(N)=O)COc2c1cc([C@@](O)(CNC(=O)c1cc(OC3CC3)c3ncccc3c1)C(F)(F)F)nc2-c1ccc(F)c(C(F)(F)F)c1 [Example 85] | > 6.70 | > 6.30 | 
C[C@](O)(CNC(=O)c1cc(OC2CC2)c2ncccc2c1)c1cc2c(c(-c3ccc(F)cc3)n1)OC[C@]2(C)C(N)=O [Example 265] | > 6.70 | > 6.30 | 
CC(C)(Oc1cc(C(=O)NC[C@](O)(c2cc3c(c(-c4ccc(F)cc4)n2)OC[C@]3(C)C(N)=O)C(F)(F)F)cc2cccnc12)C(N)=O [Example 380] | > 6.70 | < 6.30 | 
C[C@]1(C(N)=O)COc2c1cc([C@@](O)(CNC(=O)c1ccc3[nH]ncc3c1)C(F)(F)F)nc2-c1ccc(F)cc1 [Example 588] | > 6.70 | < 6.30 | 
C[C@]1(C(N)=O)COc2c1cc([C@@](O)(CNC(=O)c1cc(Nc3ncccn3)c3ncccc3c1)C(F)(F)F)nc2-c1ccc(F)cc1 [Example 337] | > 6.70 | < 6.30 | 
COc1cc(C(=O)NC[C@](O)(c2cc3c(c(-c4ccc(F)c(F)c4)n2)OC[C@]3(C)C(N)=O)C(F)(F)F)ccc1OC1CC1 [Example 89] | > 6.70 | > 6.30 | 

Compound | pEC50 [1, 3] | pEC50 [2] | pEC50 ([1]; HEp-2, read-out: Human RSV-A (“Long” strain) EC50)
C[C@]1(C(=O)NC2CC(O)C2)COc2c1cc([C@@](O)(CNC(=O)c1cc(OC3CC3)c3ncccc3c1)C(F)(F)F)nc2-c1ccc(F)cc1 (stereo partly drawn) [Example 467] | > 6.70 | > 6.30 | 
C[C@]1(C(=O)NCCCN)COc2c1cc([C@@](O)(CNC(=O)c1cc(OC3CC3)c3ncccc3c1)C(F)(F)F)nc2-c1ccc(F)cc1 [Example 464] | > 6.70 | < 6.30 | 
Cc1cnc2c(OC(=O)NC3(C)COC3)cc(C(=O)NC[C@](O)(c3cc4c(c(-c5ccc(F)cc5)n3)OC[C@]4(C)C(N)=O)C(F)(F)F)cc2c1 [Example 549] |  | < 6.30 | > 6.70
CC(C)(O)CNC(=O)[C@@]1(C)COc2c1cc([C@@](O)(CNC(=O)c1cc(OC3CC3)c3ncccc3c1)C(F)(F)F)nc2-c1ccc(F)cc1 [Example 484] | > 6.70 | > 6.30 | 
Cn1cc2cc(C(=O)NC[C@](O)(c3cc4c(c(-c5ccc(F)c(Cl)c5)n3)OC[C@]4(C)C(N)=O)C3CC3)ccc2n1 [Example 638] | > 6.70 | > 6.30 | 
C[C@]1(C(N)=O)COc2c1cc([C@@](O)(CNC(=O)c1cc(Cl)c3ncccc3c1)C(F)(F)F)nc2-c1ccc(F)cc1 [Example 221] | > 6.70 | > 6.30 | 
COc1cc(C(=O)NC[C@](O)(c2cc3c(c(-c4ccc(F)c(Cl)c4)n2)OC[C@]3(C)C(N)=O)C2CC2)cc2cc(C(F)(F)F)cnc12 [Example 536] | > 6.70 | > 6.30 | 
C[C@]1(CNCC2CC2)COc2c1cc([C@@](O)(CNC(=O)c1ccnc(C(F)(F)F)n1)C(F)(F)F)nc2-c1ccc(F)cc1 [Example 35] | < 6.70 | < 6.30 | 
C[C@]1(C(N)=O)COc2c1cc([C@@](O)(CNC(=O)c1ccc3nc(N)sc3c1)C(F)(F)F)nc2-c1ccc(F)cc1 [Example 429] | > 6.70 | < 6.30 | 
COc1cc(C(=O)NC[C@](O)(c2cc3c(c(-c4ccc(F)cc4)n2)OC[C@]3(C)C(N)=O)C(F)(F)F)cc2cc(C)c(C)nc12 [Example 533] | > 6.70 | > 6.30 | 
C[C@]1(C(N)=O)COc2c1cc([C@@](O)(CNC(=O)c1cc(OC3CC3)c3nc(N)sc3c1)C(F)(F)F)nc2-c1ccc(F)cc1 [Example 543] | > 6.70 | > 6.30 | 
COc1cc(C(=O)NC[C@](O)(c2cc3c(c(-c4ccc(F)cc4)n2)OCC3(F)C(N)=O)C(F)(F)F)cc2cccnc12 (stereo partly drawn) [Example 669] | > 6.70 | < 6.30 | 
COc1cc(C(=O)NC[C@](O)(c2cc3c(c(-c4ccc(F)cc4)n2)OC[C@]3(C)C(N)=O)C(F)(F)F)cc2cc(C3CC3)cnc12 [Example 519] | > 6.70 | > 6.30 | 
COc1cc(C(=O)NC[C@](O)(c2cc3c(c(-c4ccc(F)cc4)n2)OC[C@]3(C)CNCC2CC2)C(F)(F)F)ccn1 [Example 37] | < 6.70 | < 6.30 | 
C[C@]1(C(=O)N[C@H]2C[C@@H](O)C2)COc2c1cc([C@@](O)(CNC(=O)c1cc(OC3CC3)c3ncccc3c1)C(F)(F)F)nc2-c1ccc(F)cc1 [Example 466] | > 6.70 | > 6.30 | 
COc1cc(C(=O)NC[C@](O)(c2cc3c(c(-c4ccc(F)cc4)n2)OC[C@]3(C)C(N)=O)C(F)(F)F)ccc1OC1CC1 [Example 62] | > 6.70 | > 6.30 | 
C[C@]1(C(N)=O)COc2c1cc([C@@](O)(CNC(=O)c1ccc3ncc(Cl)cc3c1)C(F)(F)F)nc2-c1ccc(F)cc1 [Example 526] | > 6.70 | > 6.30 | 
Cc1cnc(-c2ccc(C(=O)NC[C@](O)(c3cc4c(c(-c5ccc(F)cc5)n3)OC[C@]4(C)C(N)=O)C(F)(F)F)cc2OC2CC2)o1 [Example 179] | > 6.70 | < 6.30 | 
COc1cc(C(=O)NC[C@](O)(c2cc3c(c(-c4ccc(F)c(Cl)c4)n2)OC[C@]3(C)C(N)=O)C(F)(F)F)cc2cccnc12 [Example 86] | > 6.70 | > 6.30 | 
